Consider 24 compounds from US12110294B2, “CD73 compounds” (Gilead Sciences, Inc., priority 2020, dated 2024).

This assay concerns the target T1, CD73 activity in MDA-MB-231-GFP cells (Homo sapiens, UniProt P21589).
T1 construct: endogenous in cells; host or cells: MDA-MB-231-GFP cells
T1 sequence (P21589 27-549): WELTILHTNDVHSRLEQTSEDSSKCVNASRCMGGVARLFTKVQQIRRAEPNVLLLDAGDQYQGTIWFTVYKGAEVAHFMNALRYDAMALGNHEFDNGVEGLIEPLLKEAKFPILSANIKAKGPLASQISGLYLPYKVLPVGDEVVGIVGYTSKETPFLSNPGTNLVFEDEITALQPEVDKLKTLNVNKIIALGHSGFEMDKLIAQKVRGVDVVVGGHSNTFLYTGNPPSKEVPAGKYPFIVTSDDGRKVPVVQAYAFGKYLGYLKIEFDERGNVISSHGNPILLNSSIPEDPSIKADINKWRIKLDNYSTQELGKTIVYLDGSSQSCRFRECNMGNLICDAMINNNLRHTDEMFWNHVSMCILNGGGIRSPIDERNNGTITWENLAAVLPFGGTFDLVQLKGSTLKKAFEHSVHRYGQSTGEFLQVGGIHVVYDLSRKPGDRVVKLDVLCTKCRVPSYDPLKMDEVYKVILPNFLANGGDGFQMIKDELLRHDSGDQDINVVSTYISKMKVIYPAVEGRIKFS
The assay is described as follows: MDA-MB-231 Cell Based CD73 Activity Assay (DMEM). The following applies: 3000 cells per well, DMEM medium with 10% human plasma, overnight compound treatment, AMP 200 uM. Here is the method: MDA-MB-231 Cell Based CD73 Activity Assay (DMEM) MDA-MB-231-GFP cells were seeded in 384-well plates (Greiner 781946) at a density of 3000 cells per well in 50 μL of DMEM medium with 10% HP (human plasma). Cells were plated into assay plate with compounds pre-spotted, for an overnight compound treatment. 50 uL of 400 uM AMP (final concentration will be 200 uM) was added using Bio-tek dispenser. Plates were incubated for 100 mins. […] The samples were analyzed using Rapid fire.

The term EC50 denotes the concentration at which the effect is half-maximal. A lower EC50 goes with an effect from little substance. Compound `O=c1[nH]cc(-c2cc([C@H]3C[C@@H]3c3ccccn3)c3ncc(F)n3n2)c(=O)[nH]1` (racemic) [Example 178, 5-(3-fluoro-8-((1S,2S)-2-(pyridin-2-yl)cyclopropyl)imidazo[1,2-b]pyridazin-6-yl)pyrimidine-2,4(1H,3H)-dione] registered an EC50 of 4.35 nM.
With `O=c1[nH]cc(-c2cc([C@H]3C[C@@H]3c3cncnc3)c3ncc(F)n3n2)c(=O)[nH]1` (racemic) [Example 179, 5-(3-fluoro-8-((1S,2S)-2-(pyrimidin-5-yl)cyclopropyl)imidazo[1,2-b]pyridazin-6-yl)pyrimidine-2,4(1H,3H)-dione] the figure was 60.5 nM; with `O=c1[nH]cc(-c2cc([C@H]3C[C@@H]3c3cccnc3)c3ncc(F)n3n2)c(=O)[nH]1` (racemic) [Example 180, 5-(3-fluoro-8-((1S,2S)-2-(pyridin-3-yl)cyclopropyl)imidazo[1,2-b]pyridazin-6-yl)pyrimidine-2,4(1H,3H)-dione], 4.67 nM; with `O=c1[nH]cc(-c2cc([C@H]3C[C@@H]3c3ccncc3)c3ncc(F)n3n2)c(=O)[nH]1` (racemic) [Example 181, 5-(3-fluoro-8-((1S,2S)-2-(pyridin-4-yl)cyclopropyl)imidazo[1,2-b]pyridazin-6-yl)pyrimidine-2,4(1H,3H)-dione], 6.42 nM.
With `O=c1[nH]cc(-c2cc([C@H]3C[C@@H]3c3ccc(Cl)cc3)c3ncc(F)n3n2)c(=O)[nH]1` (racemic) [Example 182, 5-(8-((2S,2S)-2-(4-chlorophenyl)cyclopropyl)-3-fluoroimidazo[1,2-b]pyridazin-6-yl)pyrimidine-2,4(1H,3H)-dione] the figure was 10.4 nM; with `O=c1[nH]cc(-c2cc([C@H]3C[C@@H]3c3ccc(C(F)(F)F)cc3)c3ncc(F)n3n2)c(=O)[nH]1` (racemic) [Example 183, 5-(3-fluoro-8-((1S,2S)-2-(4-(trifluoromethyl)phenyl)cyclopropyl)imidazo[1,2-b]pyridazin-6-yl)pyrimidine-2,4(1H,3H)-dione], 23.9 nM.
`Cn1cc([C@H]2C[C@@H]2c2cc(-c3c[nH]c(=O)[nH]c3=O)nn3ccnc23)ccc1=O` (racemic) [Example 184, 5-(8-((1S,2S)-2-(1-methyl-6-oxo-1,6-dihydropyridin-3-yl)cyclopropyl)imidazo[1,2-b]pyridazin-6-yl)pyrimidine-2,4(1H,3H)-dione] came in with an EC50 of 9.45 nM.
The figure for `CC1(C)C(=O)N(CC(F)(F)F)c2cc([C@H]3C[C@@H]3c3cc(-c4c[nH]c(=O)[nH]c4=O)nn4c(Cl)cnc34)ccc21` (racemic) [Example 212, 5-[3-chloro-8-[(1S,2S)-2-[3,3-dimethyl-2-oxo-1-(2,2,2-trifluoroethyl)indolin-6-yl]cyclopropyl]imidazo[1,2-b]pyridazin-6-yl]-1H-pyrimidine-2,4-dione] is 0.72 nM; for `O=c1[nH]cc(-c2cc([C@H]3C[C@@H]3c3ccc4c(F)nn(CC(F)(F)F)c4c3)c3ncc(Cl)n3n2)c(=O)[nH]1` (racemic) [Example 213, 5-[3-chloro-8-[(1S,2S)-2-[3-fluoro-1-(2,2,2-trifluoroethyl)indazol-6-yl]cyclopropyl]imidazo[1,2-b]pyridazin-6-yl]-1H-pyrimidine-2,4-dione] it is 0.45 nM.
With `O=c1[nH]cc(-c2cc([C@H]3C[C@@H]3c3ccc4ncsc4c3)c3nccn3n2)c(=O)[nH]1` (racemic) [Example 276, 5-(8-((1S,2S)-2-(benzo[d]thiazol-6-yl)cyclopropyl)imidazo[1,2-b]pyridazin-6-yl)pyrimidine-2,4(1H,3H)-dione] the figure was 2.78 nM; with `O=c1[nH]cc(-c2cc([C@H]3C[C@@H]3c3ccc4c(c3)OC(F)(F)O4)c3ncc(F)n3n2)c(=O)[nH]1` (racemic) [Example 278, 5-(8-((2S,2S)-2-(2,2-difluorobenzo[d][1,3]dioxol-5-yl)cyclopropyl)-3-fluoroimidazo[1,2-b]pyridazin-6-yl)pyrimidine-2,4(1H,3H)-dione], 38.9 nM; with `O=c1[nH]cc(-c2cc([C@H]3C[C@@H]3c3ccc(OC(F)(F)F)cc3F)c3nccn3n2)c(=O)[nH]1` (racemic) [Example 280, 5-(8-((1S,2S)-2-(2-fluoro-4-(trifluoromethoxy)phenyl)cyclopropyl)imidazo[1,2-b]pyridazin-6-yl)pyrimidine-2,4(1H,3H)-dione], 77.8 nM.
With `COC(=O)c1ccc([C@H]2C[C@@H]2c2cc(-c3c[nH]c(=O)[nH]c3=O)nn3ccnc23)cc1` (racemic) [Example 281, methyl 4-((2S,2S)-2-(6-(2,4-dioxo-1,2,3,4-tetrahydropyrimidin-5-yl)imidazo[1,2-b]pyridazin-8-yl)cyclopropyl)benzoate] the figure was 8.23 nM.
The compound `COC(=O)c1cccc([C@H]2C[C@@H]2c2cc(-c3c[nH]c(=O)[nH]c3=O)nn3ccnc23)c1` (racemic) [Example 282, methyl 3-((2S,2S)-2-(6-(2,4-dioxo-1,2,3,4-tetrahydropyrimidin-5-yl)imidazo[1,2-b]pyridazin-8-yl)cyclopropyl)benzoate] returned an EC50 of 11.7 nM.
The figure for `NC(=O)c1cccc([C@H]2C[C@@H]2c2cc(-c3c[nH]c(=O)[nH]c3=O)nn3ccnc23)c1` (racemic) [Example 284, 3-((1S,2S)-2-(6-(2,4-dioxo-1,2,3,4-tetrahydropyrimidin-5-yl)imidazo[1,2-b]pyridazin-8-yl)cyclopropyl)benzamide] is 3.49 nM.
In the case of `CNC(=O)c1ccc([C@H]2C[C@@H]2c2cc(-c3c[nH]c(=O)[nH]c3=O)nn3ccnc23)cc1` (racemic) [Example 285, 4-((2S,2S)-2-(6-(2,4-dioxo-1,2,3,4-tetrahydropyrimidin-5-yl)imidazo[1,2-b]pyridazin-8-yl)cyclopropyl)-N-methylbenzamide], the concentration giving a half-maximal response (EC50) stood at 2.99 nM.
In turn, `CNC(=O)c1cccc([C@H]2C[C@@H]2c2cc(-c3c[nH]c(=O)[nH]c3=O)nn3ccnc23)c1` (racemic) [Example 286, 3-((2S,2S)-2-(6-(2,4-dioxo-1,2,3,4-tetrahydropyrimidin-5-yl)imidazo[1,2-b]pyridazin-8-yl)cyclopropyl)-N-methylbenzamide] registered an EC50 of 2.42 nM. The EC50 values of the last two compounds are within 1.5-fold of each other.
With `CN(C)C(=O)c1cccc([C@H]2C[C@@H]2c2cc(-c3c[nH]c(=O)[nH]c3=O)nn3ccnc23)c1` (racemic) [Example 287, 3-((2S,2S)-2-(6-(2,4-dioxo-1,2,3,4-tetrahydropyrimidin-5-yl)imidazo[1,2-b]pyridazin-8-yl)cyclopropyl)-N,N-dimethylbenzamide] the figure was 12.5 nM.
The figure for `CN(C)C(=O)c1ccc([C@H]2C[C@@H]2c2cc(-c3c[nH]c(=O)[nH]c3=O)nn3ccnc23)cc1` (racemic) [Example 288, 4-((2S,2S)-2-(6-(2,4-dioxo-1,2,3,4-tetrahydropyrimidin-5-yl)imidazo[1,2-b]pyridazin-8-yl)cyclopropyl)-N,N-dimethylbenzamide] is 35.7 nM; for `O=C(c1ccc([C@H]2C[C@@H]2c2cc(-c3c[nH]c(=O)[nH]c3=O)nn3ccnc23)cc1)N1CCC1` (racemic) [Example 289, 5-(8-((2S,2S)-2-(4-(azetidine-1-carbonyl)phenyl)cyclopropyl)imidazo[1,2-b]pyridazin-6-yl)pyrimidine-2,4(1H,3H)-dione] it is 7.24 nM.
The figure for `CC1CN(C(=O)c2ccc([C@H]3C[C@@H]3c3cc(-c4c[nH]c(=O)[nH]c4=O)nn4ccnc34)cc2)C1` (racemic) [Example 290, 5-(8-((2S,2S)-2-(4-(3-methylazetidine-1-carbonyl)phenyl)cyclopropyl)imidazo[1,2-b]pyridazin-6-yl)pyrimidine-2,4(1H,3H)-dione] is 9.64 nM; for `O=C(c1ccc([C@H]2C[C@@H]2c2cc(-c3c[nH]c(=O)[nH]c3=O)nn3ccnc23)cc1)N1CC(C(F)(F)F)C1` (racemic) [Example 291, 5-(8-((1S,2S)-2-(4-(3-(trifluoromethyl)azetidine-1-carbonyl)phenyl)cyclopropyl)imidazo[1,2-b]pyridazin-6-yl)pyrimidine-2,4(1H,3H)-dione] it is 18.6 nM; for `O=C(c1ccc([C@H]2C[C@@H]2c2cc(-c3c[nH]c(=O)[nH]c3=O)nn3ccnc23)cc1)N1CC(F)(F)C1` (racemic) [Example 292, 5-(8-((1S,2S)-2-(4-(3,3-difluoroazetidine-1-carbonyl)phenyl)cyclopropyl)imidazo[1,2-b]pyridazin-6-yl)pyrimidine-2,4(1H,3H)-dione] it is 5.72 nM.
In turn, `CC1(C)CN(C(=O)c2ccc([C@H]3C[C@@H]3c3cc(-c4c[nH]c(=O)[nH]c4=O)nn4ccnc34)cc2)C1` (racemic) [Example 293, 5-(8-((2S,2S)-2-(4-(3,3-dimethylazetidine-1-carbonyl)phenyl)cyclopropyl)imidazo[1,2-b]pyridazin-6-yl)pyrimidine-2,4(1H,3H)-dione] registered an EC50 of 8.8 nM.
